Experimental findings from US20220372040A1, “METTL3 MODULATORS” (Accent Therapeutics, Inc., priority 2020, published 2022) are described below.

Assay type in all cases: biochemical
For one experiment, the target named is METTL3/METTL14 (Homo sapiens, UniProt Q86U44). In words: METTL3-14 standard enzyme assay (3H-SAM flashplate scintillation). The conditions noted are these: METTL3/METTL14 2.5 nM, RNA 100 nM, 3H-SAM 100 nM, 30 min. How it is done:
METTL3-14 Standard Enzyme Assay
(§1) Assays were performed in a 25 μl-volume in 384-well V-bottom polypropylene microplates (Greiner Bio-One, cat. No. 781280) at ambient temperature. Optimized 1× assay buffer was 20 mM HEPES pH 7.5, 50 mM KCl, 250 μM MgCl2, 1 mM DTT, 0.01% Tween, 0.01% BSG, 0.004 U/μl RNAseOUT (cat. No. 10777019, ThermoFisher Scientific, Waltham, Mass.). For compound screening METTL3/METTL14 (final concentration, f.c.=2.5 nM) was added using a Multidrop Combi (ThermoFisher Scientific, Waltham, Mass.) and preincubated for 5 min. Reactions were started by adding 3′ biotinylated RNA (UCUGGACUAAA-biotin) (f.c.=100 nM) and 3H-SAM (f.c.=100 nM) substrates. Reactions proceeded for 30 minutes and were quenched with excess non-radioactive SAM (f.c.=15 μM). The reactions were then transferred to streptavidin-coated flashplates and incubated for 2 hours at 25° C. Following two washing cycles with 0.1% Tween-20, the plates were sealed and read on a TopCount (PerkinElmer, Waltham, Mass.) plate-based scintillation counter. For determination of kinetic parameters, reaction times were optimized so that measurements were taken during the initial velocity phase of the reaction.

In another experiment the target is PRMT5-MEP50 (Homo sapiens, UniProt O14744). In words: PRMT5 assay (3H-SAM flashplate scintillation). The conditions noted are these: PRMT5-MEP50 2.5 nM, histone H4 peptide 100 nM, 3H-SAM 250 nM, 60 min. How it is done:
Assays were performed in a 25 μl-volume in 384-well V-bottom polypropylene microplates (Greiner Bio-One, cat. No. 781280) at ambient temperature. Optimized 1× assay buffer was 20 mM Tris-HCl pH 8.0, 1 mM DTT, […]. For compound screening PRMT5-MEP50 (final concentration, f.c.=2.5 nM) was added using a Multidrop Combi (ThermoFisher Scientific, Waltham, Mass.) and preincubated for 5 min. Reactions were started by adding 3′ biotinylated histone H4 peptide acetylated on serine 1 (Ac-[…]-Biotin) (f.c.=100 nM) and 3H-SAM (f.c.=250 nM) substrates. Reactions proceeded for 60 minutes and were quenched with excess non-radioactive SAM (f.c.=15 μM). The reactions were then transferred to streptavidin-coated flashplates and incubated for 2 hours at 25° C. Following two washing cycles with 0.1% Tween-20, the plates were sealed and read on a TopCount (PerkinElmer, Waltham, Mass.) plate-based scintillation counter. For determination of kinetic parameters, reaction times were optimized so that measurements were taken during the initial velocity phase of the reaction.

The target in a further experiment is T1, METTL16 (Homo sapiens, UniProt Q86W50).
T1 sequence (Q86W50 1-562): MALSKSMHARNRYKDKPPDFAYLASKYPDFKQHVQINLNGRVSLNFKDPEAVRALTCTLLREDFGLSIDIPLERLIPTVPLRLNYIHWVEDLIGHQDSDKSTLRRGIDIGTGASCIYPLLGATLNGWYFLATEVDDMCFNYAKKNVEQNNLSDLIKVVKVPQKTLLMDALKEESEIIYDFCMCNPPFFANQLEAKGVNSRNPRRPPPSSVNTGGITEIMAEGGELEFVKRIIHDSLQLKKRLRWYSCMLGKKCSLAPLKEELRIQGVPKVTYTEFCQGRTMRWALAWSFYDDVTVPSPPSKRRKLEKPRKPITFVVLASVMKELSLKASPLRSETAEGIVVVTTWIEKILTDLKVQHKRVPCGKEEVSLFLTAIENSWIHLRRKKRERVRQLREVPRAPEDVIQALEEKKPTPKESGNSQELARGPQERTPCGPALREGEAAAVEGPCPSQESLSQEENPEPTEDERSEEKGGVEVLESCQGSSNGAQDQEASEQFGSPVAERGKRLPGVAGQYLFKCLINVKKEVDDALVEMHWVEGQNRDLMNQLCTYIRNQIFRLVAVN
In words: METTL16 assay (3H-SAM flashplate scintillation). The settings on record: METTL16 100 nM, RNA 50 nM, 3H-SAM 200 nM, SAM 800 nM, 20 min. How it is done:
Assays were performed in a 25 μl-volume in 384-well V-bottom polypropylene microplates (Greiner Bio-One, cat. No. 781280) at ambient temperature. Optimized 1× assay buffer was 20 mM HEPES pH 7.5, 50 mM KCl, 1 mM DTT, 0.01% Tween, 0.01% BSG, 0.004 U/μl RNAseOUT (cat. No. 10777019, ThermoFisher Scientific, Waltham, Mass.). For compound screening METTL16 (final concentration, f.c.=100 nM) was added using a Multidrop Combi (ThermoFisher Scientific, Waltham, Mass.) and preincubated for 5 min. Reactions were started by adding 3′ biotinylated RNA ([…]-biotin) (f.c.=50 nM), 3H-SAM (f.c.=200 nM) and non-radiolabeled SAM (f.c.=800 nM) substrates. Reactions proceeded for 20 minutes and were quenched with excess non-radioactive SAM (f.c.=100 μM). The reactions were then transferred to streptavidin-coated flashplates and incubated for 2 hours at 25° C. Following two washing cycles with 0.1% Tween-20, the plates were sealed and read on a TopCount (PerkinElmer, Waltham, Mass.) plate-based scintillation counter. For determination of kinetic parameters, reaction times were optimized so that measurements were taken during the initial velocity phase of the reaction.

The next experiment deals with METTL1/WDR4 (Homo sapiens, UniProt Q9UBP6). In words: METTL1 assay (3H-SAM flashplate scintillation). As for the experimental part:
as §1, with “METTL1/WDR4” for “METTL3/METTL14”, “f.c.=6.25” for “f.c.=2.5”, “([…]-biotin) (f.c.=25” for “(UCUGGACUAAA-biotin) (f.c.=100”, “(f.c.=60” for “(f.c.=100”, “20” for “30”

Setting [1] is: METTL1/WDR4 6.25 nM, RNA 25 nM, 3H-SAM 60 nM, 20 min, read-out: METTL1 IC50.

Counter-ions that a name gives are not always drawn. Like-named read-outs stand apart in the source and are kept apart here.

As usually defined, the IC50 is the concentration that inhibits the measured activity by half.

Sequence of PRMT5-MEP50 (O14744 whole entry): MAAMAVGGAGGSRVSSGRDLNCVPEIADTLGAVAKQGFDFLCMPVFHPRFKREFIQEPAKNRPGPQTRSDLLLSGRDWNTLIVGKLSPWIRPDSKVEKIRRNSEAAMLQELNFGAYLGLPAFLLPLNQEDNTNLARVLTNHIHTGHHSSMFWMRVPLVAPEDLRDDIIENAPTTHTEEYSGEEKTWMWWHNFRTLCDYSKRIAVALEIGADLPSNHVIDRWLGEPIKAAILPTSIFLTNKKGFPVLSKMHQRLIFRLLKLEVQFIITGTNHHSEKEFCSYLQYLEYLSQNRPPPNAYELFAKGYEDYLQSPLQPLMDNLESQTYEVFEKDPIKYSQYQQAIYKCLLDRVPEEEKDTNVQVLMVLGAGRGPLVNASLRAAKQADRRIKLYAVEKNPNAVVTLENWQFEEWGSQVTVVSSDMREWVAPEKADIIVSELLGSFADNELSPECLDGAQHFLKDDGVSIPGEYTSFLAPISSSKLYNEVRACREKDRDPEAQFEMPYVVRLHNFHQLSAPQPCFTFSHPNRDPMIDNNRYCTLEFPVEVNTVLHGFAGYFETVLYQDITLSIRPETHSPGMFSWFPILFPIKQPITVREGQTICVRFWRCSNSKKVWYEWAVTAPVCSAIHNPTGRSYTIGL
Sequence of PRMT5-MEP50 (Q9BQA1 whole entry partner): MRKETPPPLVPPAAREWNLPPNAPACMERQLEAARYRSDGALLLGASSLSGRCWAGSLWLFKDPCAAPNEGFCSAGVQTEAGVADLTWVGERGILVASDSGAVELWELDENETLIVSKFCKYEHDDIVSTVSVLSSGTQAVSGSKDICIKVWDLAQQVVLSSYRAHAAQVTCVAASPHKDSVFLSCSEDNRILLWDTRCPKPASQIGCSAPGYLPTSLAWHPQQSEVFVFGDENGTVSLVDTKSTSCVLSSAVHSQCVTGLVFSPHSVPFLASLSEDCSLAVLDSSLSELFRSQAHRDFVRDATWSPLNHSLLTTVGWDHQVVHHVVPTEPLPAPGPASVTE
Sequence of METTL3/METTL14 (Q86U44 whole entry, species assumed): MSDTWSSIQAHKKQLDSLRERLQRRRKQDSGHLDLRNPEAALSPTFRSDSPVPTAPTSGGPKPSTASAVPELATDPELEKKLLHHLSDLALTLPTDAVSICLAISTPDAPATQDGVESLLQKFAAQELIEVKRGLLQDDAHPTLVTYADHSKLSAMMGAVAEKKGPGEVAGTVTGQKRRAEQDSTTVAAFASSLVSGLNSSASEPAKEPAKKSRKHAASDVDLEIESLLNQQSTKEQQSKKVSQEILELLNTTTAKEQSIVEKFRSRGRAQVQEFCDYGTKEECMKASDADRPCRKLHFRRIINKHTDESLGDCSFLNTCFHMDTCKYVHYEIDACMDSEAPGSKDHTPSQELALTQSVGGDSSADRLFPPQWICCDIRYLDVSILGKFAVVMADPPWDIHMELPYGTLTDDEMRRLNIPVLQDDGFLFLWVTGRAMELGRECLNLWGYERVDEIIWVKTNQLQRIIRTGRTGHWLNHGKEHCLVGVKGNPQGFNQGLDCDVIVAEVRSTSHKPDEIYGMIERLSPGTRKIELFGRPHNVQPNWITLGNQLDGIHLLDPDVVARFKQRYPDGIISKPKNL
Sequence of METTL3/METTL14 (Q9HCE5 whole entry partner, species assumed): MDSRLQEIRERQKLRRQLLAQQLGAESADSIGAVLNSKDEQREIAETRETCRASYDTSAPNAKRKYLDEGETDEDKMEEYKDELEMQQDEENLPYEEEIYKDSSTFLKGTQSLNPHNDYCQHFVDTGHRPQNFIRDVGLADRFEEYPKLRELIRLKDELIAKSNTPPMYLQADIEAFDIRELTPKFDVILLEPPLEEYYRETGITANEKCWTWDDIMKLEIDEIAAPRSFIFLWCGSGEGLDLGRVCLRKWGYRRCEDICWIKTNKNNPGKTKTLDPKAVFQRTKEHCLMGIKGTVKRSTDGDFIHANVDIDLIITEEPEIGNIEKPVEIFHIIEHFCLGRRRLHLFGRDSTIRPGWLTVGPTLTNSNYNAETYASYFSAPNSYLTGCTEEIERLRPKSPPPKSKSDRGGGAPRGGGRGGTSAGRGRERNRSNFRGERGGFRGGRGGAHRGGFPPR
Sequence of METTL1/WDR4 (Q9UBP6 whole entry, species assumed): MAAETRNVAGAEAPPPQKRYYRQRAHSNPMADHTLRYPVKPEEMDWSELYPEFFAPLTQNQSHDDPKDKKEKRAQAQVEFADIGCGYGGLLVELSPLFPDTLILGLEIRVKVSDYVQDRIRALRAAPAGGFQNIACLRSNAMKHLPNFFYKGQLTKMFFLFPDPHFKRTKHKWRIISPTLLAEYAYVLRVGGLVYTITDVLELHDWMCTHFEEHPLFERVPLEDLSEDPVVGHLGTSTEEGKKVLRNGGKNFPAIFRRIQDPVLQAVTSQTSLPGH
Sequence of METTL1/WDR4 (P57081 whole entry partner, species assumed): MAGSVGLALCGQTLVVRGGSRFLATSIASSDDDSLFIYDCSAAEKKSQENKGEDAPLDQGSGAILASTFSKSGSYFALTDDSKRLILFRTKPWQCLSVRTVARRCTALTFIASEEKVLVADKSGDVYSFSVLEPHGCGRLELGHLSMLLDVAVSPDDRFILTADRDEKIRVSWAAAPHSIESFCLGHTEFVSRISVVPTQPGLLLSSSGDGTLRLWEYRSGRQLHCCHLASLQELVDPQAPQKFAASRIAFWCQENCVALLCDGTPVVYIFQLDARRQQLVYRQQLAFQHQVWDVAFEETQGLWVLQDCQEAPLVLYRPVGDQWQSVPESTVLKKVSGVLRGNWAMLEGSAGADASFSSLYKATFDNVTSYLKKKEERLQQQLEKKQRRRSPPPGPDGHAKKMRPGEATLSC

On to `Nc1ncnc2c1ccn2-c1cncc(COc2ccc3ccc(N4CCCC4)nc3c2)c1` [Compound I-26], for which the IC50 against METTL3/METTL14 was 10 to 100 nM; at PRMT5-MEP50 it was over 1000 nM; on METTL16, over 1000 nM.
Regarding `CC(C)(C)c1cc(N)c2ccc(OCc3cncc(-n4ccc5c(N)ncnc54)c3)cc2n1` [Compound I-93], the half-inhibitory concentration (IC50) was under 10 nM against METTL3/METTL14, over 1000 nM against PRMT5-MEP50 and over 1000 nM at METTL1/WDR4 (setting [1]).
Turning to `CNc1ccc2ccc(OCc3cc(-n4cc(Cl)c5c(N)ncnc54)cnc3NC)cc2n1` [Compound I-13], the figures for the 50% inhibitory concentration (IC50) on METTL3/METTL14, on PRMT5-MEP50 and at METTL1/WDR4 (setting [1]) were 10 to 100 nM, over 1000 nM and over 1000 nM, respectively.
Consider `Nc1ncnc2c1c(Cl)cn2-c1cncc(COc2ccc3ccc(N4CCCC4)nc3c2)c1` [Compound I-40], for which the concentration for half-maximal inhibition (IC50) was 10 to 100 nM against METTL3/METTL14, over 1000 nM on PRMT5-MEP50 and over 1000 nM against METTL16.
For the compound `CNc1ccc2ccc(OCc3cncc(-n4cc(CCN(C)C)c5c(N)ncnc54)c3)cc2n1` [Compound I-27], the IC50 against METTL3/METTL14 is 10 to 100 nM; against PRMT5-MEP50 it was over 1000 nM; at METTL16 it was over 1000 nM.
Take `CCc1cc(NCCN(C)C)c2ccc(OCc3cncc(-n4ccc5c(N)ncnc54)n3)cc2n1` [Compound I-89]: the IC50 on METTL3/METTL14 was under 10 nM; at PRMT5-MEP50, over 1000 nM; at METTL1/WDR4 (setting [1]) it was over 1000 nM.
Take `Cc1cc(N)c2ccc(OCc3cncc(-n4cc(Cl)c5c(N)ncnc54)c3)cc2n1` [Compound I-53]: the results for the IC50 against METTL3/METTL14, against PRMT5-MEP50 and at METTL16 were 10 to 100 nM, over 1000 nM and over 1000 nM, respectively.
In the case of `CNc1ccc2ccc(COc3cncc(-n4ccc5c(N)ncnc54)c3)cc2n1` [Compound I-22, 7-{[(5-{4-amino-7H-pyrrolo[2,3-d]pyrimidin-7-yl}pyridin-3-yl)oxy]methyl}-N-methylquinolin-2-amine], the IC50 at METTL3/METTL14 was 10 to 100 nM; at PRMT5-MEP50 it was over 1000 nM; on METTL1/WDR4 (setting [1]), over 1000 nM.
In the case of `C=CC(=O)N(CCC(=O)O)c1nc(N)c2ccn(-c3cncc(COc4ccc5ccc(NC)nc5c4)c3)c2n1` [Compound I-41], the IC50 against METTL3/METTL14, at PRMT5-MEP50 and on METTL16 was over 1000 nM throughout.
With `Nc1ncnc2c1c(Cl)cn2-c1csc(COc2ccc3ccc(N4CCCC4)nc3c2)n1` [Compound I-23, 5-chloro-7-(2-(((2-(pyrrolidin-1-yl)quinolin-7-yl)oxy)methyl)thiazol-4-yl)-7H-pyrrolo[2,3-d]pyrimidin-4-amine hydrochloride], the IC50 against METTL3/METTL14, on PRMT5-MEP50 and at METTL1/WDR4 was over 1000 nM each time.
Take `CNc1ccc2ccc(OCc3cc(C(N)=O)cc(-n4cc(Cl)c5c(N)ncnc54)c3)cc2n1` [Compound I-21]: the IC50 was 100 to 1000 nM against METTL3/METTL14, over 1000 nM against PRMT5-MEP50 and over 1000 nM at METTL1/WDR4 (setting [1]).
In the case of `CNc1ccc2ccc(CCc3cncc(-n4cc(Cl)c5c(N)ncnc54)c3)cc2n1` [Compound I-51], the concentration for half-maximal inhibition (IC50) is 10 to 100 nM at METTL3/METTL14, over 1000 nM on PRMT5-MEP50 and over 1000 nM on METTL16.
As for `CNc1ccc2ccc(OCc3cncc(-n4ccc5c(N)nc(NC)nc54)c3)cc2n1` [Compound I-50], the 50% inhibitory concentration (IC50) against METTL3/METTL14, against PRMT5-MEP50 and against METTL16 was over 1000 nM in each case.
On to `CNc1ccc2ccc(OCc3cccc(-n4cc(Br)c5c(N)ncnc54)c3)cc2n1` [Compound I-43], for which the IC50 at METTL3/METTL14 was 10 to 100 nM; at PRMT5-MEP50 it was over 1000 nM; on METTL16 it was over 1000 nM.
As to `CC(C)Nc1ccc2ccc(OCc3cncc(-n4cc(Cl)c5c(N)ncnc54)c3)cc2n1` [Compound I-39], the concentration for half-maximal inhibition (IC50) was 10 to 100 nM at METTL3/METTL14, over 1000 nM at PRMT5-MEP50 and over 1000 nM at METTL16.
For `CNc1ccc2ccc(OCc3nc(-n4ccc5c(N)ncnc54)cs3)cc2n1` [Compound I-19], the IC50 at METTL3/METTL14 was 10 to 100 nM; against PRMT5-MEP50, over 1000 nM; at METTL1/WDR4 it was over 1000 nM.
Turning to `CCCC(=O)c1cn(-c2cncc(COc3ccc4ccc(NC)nc4c3)c2)c2ncnc(N)c12` [Compound I-96], the IC50 on METTL3/METTL14 is 10 to 100 nM; against PRMT5-MEP50, over 1000 nM; on METTL1/WDR4 (setting [1]) it was over 1000 nM.
On to `Cc1cc(NCCN(C)CCCc2ccccc2)c2ccc(OCc3cncc(-n4ccc5c(N)ncnc54)c3)cc2n1` [Compound I-98], for which the IC50 on METTL3/METTL14 was 10 to 100 nM; on PRMT5-MEP50, over 1000 nM; on METTL1/WDR4 (setting [1]), over 1000 nM.
`CC(C)c1nc(N)c2ccc(OCc3cncc(-n4ccc5c(N)ncnc54)c3)cc2n1` [Compound I-91]: the IC50 at METTL3/METTL14 is 10 to 100 nM; on PRMT5-MEP50 it was over 1000 nM; on METTL1/WDR4 (setting [1]) it was over 1000 nM.
With `Nc1ncnc2c1c(Cl)cn2-c1nnc(COc2ccc3ccc(N4CCCC4)nc3c2)s1` [Compound I-38, 5-chloro-7-(5-(((2-(pyrrolidin-1-yl)quinolin-7-yl)oxy)methyl)-1,3,4-thiadiazol-2-yl)-7H-pyrrolo[2,3-d]pyrimidin-4-amine trifluoroacetate], the concentration for half-maximal inhibition (IC50) at METTL3/METTL14, against PRMT5-MEP50 and against METTL1/WDR4 was over 1000 nM in each case.
For the compound `CNc1ccc2ccc(OCc3ncc(-n4cc(Cl)c5c(N)ncnc54)s3)cc2n1` [Compound I-24], the half-inhibitory concentration (IC50) at METTL3/METTL14, on PRMT5-MEP50 and on METTL1/WDR4 was over 1000 nM each time.
For `CNc1ccc2ccc(OCc3nc(-n4cc(Cl)c5c(N)ncnc54)cs3)cc2n1` [Compound I-37], the IC50 against METTL3/METTL14 was 10 to 100 nM; at PRMT5-MEP50, over 1000 nM; on METTL1/WDR4 (setting [1]) it was over 1000 nM.
